Measured values as given in US6458585B1, “Cytokine-free culture of dendritic cells” (Nexell Therapeutics Inc., priority 1996, dated 2002).

Columns and labels:
Type in all cases: cell-based, human
adherent PBMNC [1] = test: S100 immunohistochemistry of plastic adherent cells cultured with non-cytokine additives; conditions: for percentages of S100+ cells: day 7, additive added to GM-CSF 50 ng/ml
Procedure: Immunocytochemical staining: PBS (phosphate buffered saline) was made by dissolving 5 PBS tablets into 1000 ml millipore water. Cytospin slides were soaked in PBS. […] Slides were rinsed with PBS one time. Non-specific binding sites were blocked by incubating with normal serum matching source of secondary antibody (i.e. if secondary antibody is biotinylated goat-anti-mouse, used normal goat serum) at room temp. for 15 min. in a humidified environment. Excess serum was shaken from slides and placed 100 ul of primary antibody on slide, making sure cells are covered with liquid and incubated in humidified environment, room temp, for one hour. Negative control slides were incubated with normal serum for this hour. Slides were rinsed 3 times with PBS. Slides were incubated with biotinylated antibody reactive against the primary antibody (i.e. if primary antibody is mouse-anti-human, use a biotinylated goat-anti-mouse antibody) for 1 hour in humidity. Slides were rinsed 3 times with PBS. Slides were incubated with streptavidin-peroxidase, 2 drops/slide, for 30 min. in humidity. Slides were rinsed 3 times with PBS.
Chromagen solution was made with 5 ml millipore water+2 drops of chromagen buffer+1 drop of concentrated chromagen+1 drop of substrate, and 4-5 drops were added to each slide. […] Slides were counterstained with hematoxylin for about 5 min, or until cell nuclei were stained purple. Cells were rinsed with tap water and allowed to air dry. Slides were covered with crystal mount and oven dried at 80 degrees for 15 min. Slides were allowed to cool, then coversliped with mounting medium.
(§1) Enrichment and Culture of Adherent Cells Using Polystyrene Tissue Culture Plates: PBMNC were resuspended in culture media (X-VIVO 15™+10% autologous serum) at 2×10^6 cells/ml. Cells were placed into 48 well polystyrene tissue culture plates […] and incubated for 2 hours in a 5% CO2, ambient O2, 37° C. humidified incubator. Non-adherent cells were removed from the plates then wells were rinsed with X-VIVO 15™ containing no serum. Cells remaining in the wells were adherent cells. These cells were cultured by adding 2 ml of X-VIVO 15™ to each well plus GM-CSF and IL-4 at final concentrations of 50 ng/ml and 1000 U/ml or the following: cAMP at 0.5 mM, dibutyryl cAMP at 0.1 mM, NaF at 0.25 mM, theophylline at 0.5 mM, PGE at 0.1 mM, Vitamin D3 at 2.5 uM, Vitamin E at 0.1%, Retinoic Acid at 10^−6 M, PMA at 1 pM, Linoleic Acid at 5 ug/ml, or Ca^++ Ionophore at 10 mM. Furthermore, cells were also cultured with the above non-cytokine additives plus GM-CSF at 50 ng/ml. Cells were cultured in a 5% CO2, ambient O2, 37° C. humidified incubator for 7 days.
(§2) Cytospin slide preparation, Wright-Geimsa and immunohistochemical staining of the cultured cells were conducted as described in Example 1 and 2 above. Mixed lymphocyte reactions (MLR's) were setup using T cells (responders) and dendritic cell enriched cultures (stimulators) from bulk PBMNC cultures, as described above in Example 1.
(§3) Results: In the set of experiments using plastic adherent cells grown in polystyrene tissue culture plates, a Day 0 analysis of the cells was not performed. However, these cultures were analyzed for the presence of DC on days 4 and 7. Analysis perfomed were cell counts, viability via propidium iodide, morphology under Wright-Geimsa staining, and immunohistochemical staining using an anti-S100 antibody.

adherent PBMNC [2] = test: Cell counts and viability of plastic adherent cells cultured with non-cytokine additives in polystyrene plates; parameters: % VIABLE: concentration or dose not given beside the values; conditions: for % VIABLE: propidium iodide
Procedure: Viability Determination: Prior to acquisition, 5 ul propidium iodide (PI) was added to each tube for use as a viability check. The cells were vortexed and acquired within 10 min of PI addition.
as §1, §3

adherent PBMNC [3] = test: DC morphology (Wright-Geimsa) of plastic adherent cells cultured with non-cytokine additives
Procedure: Cytofunnels were attached to microscope slides. 50,000 to 100,000 cells were removed from each culture and resuspended in approximately 100 to 200 ul of PBS-CMF. Slides were placed in the Cytospin® centrifuge and spun at 100 rpm for 4 min. Cytofunnels were removed from the slides and the slides were air dried for 1 minute. Ten drops of Wright-Geimsa stain were placed onto each slide and allowed to fix for 1 to 2 minutes. Ten drops of water were added to each slide and allowed to sit for 2 to 4 minutes. The slides were rinsed and air dried.
Reading of Cytospin Slides: Slides were read under phase contrast microscopy, 40× and 60× oil magnification. One hundred cells were identified and characterized morphologically as either dendritic cells or non-dendritic cells (lymphocytes and monocyte, or CD34+-derived cells in those cases). Digital images were taken using a color monitor and color video printer.
as §1, §2, §3

Row | Molecule | % S100+ (adherent PBMNC [1]; Day 4, with GM-CSF present) | % S100+ (adherent PBMNC [1]; Day 4, without GM-CSF) | % S100+ (adherent PBMNC [1]; Day 7, with GM-CSF present) | % S100+ (adherent PBMNC [1]; Day 7, without GM-CSF) | TOTAL CELLS (adherent PBMNC [2]; Day 4, with GM-CSF present) | % VIABLE (adherent PBMNC [2]; Day 4, with GM-CSF present) | TOTAL CELLS (adherent PBMNC [2]; Day 4, without GM-CSF) | % VIABLE (adherent PBMNC [2]; Day 4, without GM-CSF) | TOTAL CELLS (adherent PBMNC [2]; Day 7, with GM-CSF present) | % VIABLE (adherent PBMNC [2]; Day 7, with GM-CSF present) | TOTAL CELLS (adherent PBMNC [2]; Day 7, without GM-CSF) | % VIABLE (adherent PBMNC [2]; Day 7, without GM-CSF) | % DC (adherent PBMNC [3]; Day 4, with GM-CSF present) | % DC (adherent PBMNC [3]; Day 4, without GM-CSF) | % DC (adherent PBMNC [3]; Day 7, with GM-CSF present) | % DC (adherent PBMNC [3]; Day 7, without GM-CSF) | percentages of S100+ cells (adherent PBMNC [1])
1 | Cc1c(C)c2c(c(C)c1O)CCC(C)(CCCC(C)CCCC(C)CCCC(C)C)O2 (mixture of isomers) [Vit E] | 26.00% | 19.00% | 19.00% | 11.00% | 1.38E + 05 | 97.48% | 1.64E + 05 | 78.65% | 1.05E + 05 | 94.21% | 1.75E + 05 | 71.91% | 4.50% | 2.50% | 6.00% | 3.00% | –
2 | CNc1ccc2oc(CC3OC4(CCC3C)OC(C(C)C(=O)c3ccc[nH]3)C(C)CC4C)nc2c1C(=O)O (stereo not shown) [Ca + + Iono] | 20.00% | – | – | 29.00% | 1.66E + 05 | 96.23% | – | – | – | – | 1.54E + 05 | 84.02% | 9.50% | – | – | 6.00% | –
3 | [F-].[Na+] [NaF, Sodium Fluoride] | 7.00% | 0.00% | 5.00% | 2.50% | 1.90E + 05 | 67.04% | 2.19E + 05 | 72.46% | 1.44E + 05 | 30.61% | 2.18E + 05 | 44.31% | 0.00% | 0.00% | 0.00% | 0.00% | –
4 | CCCCC[C@H](O)/C=C/[C@H]1[C@H](O)CC(=O)[C@@H]1CCCCCCC(=O)O [PGE, Prostaglandin E1] | 6.00% | 0.00% | 26.50% | 5.00% | 2.35E + 05 | 92.40% | 2.54E + 05 | 71.62% | 1.84E + 05 | 60.29% | 2.91E + 05 | 59.78% | 5.00% | 3.00% | 5.50% | 0.00% | –
5 | CCCCCCCCCCCCCC(=O)O[C@@H]1[C@@H](C)[C@@]2(O)[C@@H](C=C(CO)C[C@]3(O)C(=O)C(C)=C[C@@H]23)[C@@H]2C(C)(C)[C@]12OC(C)=O [PMA, Phorbol Myristate Acetate] | 20.00% | 4.00% | 26.50% | 6.50% | 1.45E + 05 | 97.60% | 1.64E + 05 | 77.17% | 1.04E + 05 | 95.15% | 1.51E + 05 | 82.20% | 4.50% | 1.00% | 0.00% | 1.00% | –
6 | CC1=C(/C=C/C(C)=C/C=C/C(C)=C/C(=O)O)C(C)(C)CCC1 [Ret Acid] | 9.00% | 7.00% | 14.00% | 7.00% | 1.21E + 05 | 95.30% | 1.48E + 05 | 60.67% | – | 88.52% | 1.66E + 05 | 45.17% | 1.50% | 10.00% | 4.00% | 0.00% | –
7 | C=C1CCC(O)CC1=CC=C1CCCC2(C)C1CCC2C(C)CCCC(C)C (stereo not shown) [Vit D3] | 8.00% | 5.50% | 39.00% | 16.00% | 1.95E + 05 | 95.86% | 2.37E + 05 | 76.06% | 1.64E + 05 | 67.44% | 1.82E + 05 | 75.13% | 3.00% | 1.50% | 5.00% | 0.50% | –
8 | Nc1ncnc2c1ncn2[C@@H]1O[C@@H]2COP(=O)(O)O[C@H]2[C@H]1O [cAMP, Cyclic Adenosine Monophosphate] | 41.00% | 10.50% | 47.00% | 10.00% | 2.02E + 05 | 87.60% | 1.86E + 05 | 76.37% | 1.56E + 05 | 60.51% | 2.08E + 05 | 19.89% | 3.00% | 0.00% | 0.00% | 0.50% | greatest percentages of S100+ cells
9 | IL-4: interleukin-4, Genzyme; added to GM-CSF (protein, UniProt P05112 25-153, looked up) Interleukin-4: HKCDITLQEIIKTLNSLTEQKTLCTELTVTDIFAASKNTTEKETFCRAATVLRQFYSHHEKDTRCLGATAQQFHRHKQLIRFLKRLDRNLWGLAGLNSCPVKEANQSTLENFLERLKTIMREKYSKCSS | – | – | – | – | – | – | – | – | – | – | – | – | – | – | – | – | greatest percentages of S100+ cells
